Measured values published in patent publication US11401286B2 (Tetra Discovery Partners, LLC, priority 2012, dated 2022).
Structures can show the parent of a compound that is named as a salt.

Target: PDE4D7 (Homo sapiens (Human), UniProt Q08499)
Conditions: read-out: PDE4D7 IC50
Protocol: Here, a kinetic assay of cAMP hydrolysis by purified PDE4 was used, in which PDE4 activity was measured by coupling the formation of the PDE4 reaction product, 5′-adenosine monophosphate, to the oxidation of reduced nicotinamide adenine dinucleotide (NADH) by the use of three coupling enzymes (myokinase, pyruvate kinase and lactate dehydrogenase), which allows fluorescent determination of reaction rates. Assays are performed in 96-well plates in a total volume of 200 μl/well. Compounds are dissolved in dimethylsulfoxide (DMSO) and added to plates in a volume of 10 μl followed by addition of 165 μl of assay mix. Plates are pre-incubated at 25° C. for 15 min and the reactions are initiated by the addition of 25 μl of cAMP followed by thorough mixing. […] Initial rates (slopes) are determined from linear portions of the progress curves. Final concentrations of assay components are as follows: 50 mM Tris, pH 8, 10 mM MgCl2, 50 mM KCl, 2% DMSO, 5 mM tris(2-carboxyethyl)phosphine (TCEP), 0.4 mM phosphenolpyruvate (PEP), 0.01 mM NADH, 0.04 mM adenosine triphosphate (ATP), 0.004 mM cAMP, 7.5 units myokinase from yeast, 1.6 units pyruvate kinase, 2 units lactate dehydrogenase, and either 0.5 nM human PDE4D7 or 10 nM human PDE4B1. All data are percent normalized relative to controls and are presented as percent inhibition. […] Human PDE4D7 contained a mutation of serine 54 to aspartic acid to mimic activation by cAMP-dependent protein kinase A (PKA).
PDE4D7*=PDE4D7 containing a UCR1 activating mutation S54D.

PDE4D7, sequence (Q08499 other isoform, or with tags, fused parts or gaps): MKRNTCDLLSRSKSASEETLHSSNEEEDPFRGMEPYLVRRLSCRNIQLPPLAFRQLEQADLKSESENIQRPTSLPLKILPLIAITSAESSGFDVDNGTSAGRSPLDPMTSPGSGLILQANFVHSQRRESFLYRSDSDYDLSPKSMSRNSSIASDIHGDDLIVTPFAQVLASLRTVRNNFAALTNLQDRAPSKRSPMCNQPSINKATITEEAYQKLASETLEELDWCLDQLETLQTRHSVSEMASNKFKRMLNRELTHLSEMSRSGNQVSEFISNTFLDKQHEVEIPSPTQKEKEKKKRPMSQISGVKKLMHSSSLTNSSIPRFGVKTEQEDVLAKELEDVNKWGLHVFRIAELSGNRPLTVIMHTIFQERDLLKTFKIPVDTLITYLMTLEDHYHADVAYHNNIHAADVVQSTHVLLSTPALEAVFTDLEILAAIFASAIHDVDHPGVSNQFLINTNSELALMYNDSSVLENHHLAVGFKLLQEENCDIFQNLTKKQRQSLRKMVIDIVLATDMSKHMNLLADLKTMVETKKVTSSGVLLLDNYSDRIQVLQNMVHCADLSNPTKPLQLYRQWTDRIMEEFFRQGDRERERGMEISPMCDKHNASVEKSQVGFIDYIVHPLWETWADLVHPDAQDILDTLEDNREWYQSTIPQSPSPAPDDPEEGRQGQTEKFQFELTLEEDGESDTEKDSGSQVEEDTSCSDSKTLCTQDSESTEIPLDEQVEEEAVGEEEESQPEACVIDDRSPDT

`CCc1cc(Oc2ccc(CC(N)=O)cc2)nc(-c2cccc(Cl)c2)n1` [Example 181, 2-(4-((2-(3-Chlorophenyl)-6-ethylpyrimidin-4-yl)oxy)phenyl)acetamide] and `CN1CCN(c2cc(Nc3ccc(CC(N)=O)cc3)c3c(n2)CCC3)CC1` [Example 253, 2-(4-((2-(4-methylpiperazin-1-yl)-6,7-dihydro-5H-cyclopenta[b]pyridin-4-yl)amino)phenyl)acetamide hydrochloride] cannot be ordered by IC50: > 1000 nM for the first, > 1000 nM for the second.

Same assay, conditions: read-out: PDE4D7 IC50; PDE4D7 without asterisk

First: CCc1cc(Cc2ccc(C(C)(C)C(N)=O)cc2)nc(-c2cccc(Cl)c2)n1 [Example 196, 2-(4-((2-(3-Chlorophenyl)-6-ethylpyrimidin-4-yl)methyl)phenyl)-2-methylpropanamide]
Second: CCc1cc(Cc2ccc(CC(=O)NCCO)cc2)nc(-c2cccc(Cl)c2)n1 [Example 195, 2-(4-((2-(3-chlorophenyl)-6-ethylpyrimidin-4-yl)methyl)phenyl)-N-(2-hydroxyethyl)acetamide]
The IC50 of the first is higher: > 1000 nM for the first, < 1000 nM for the second.

`NC(=O)Cc1ccc(Nc2cc(S(=O)(=O)C3CCCC3)nc3c2CCC3)cc1` [Example 259, 2-(4-((2-(Cyclopentylsulfonyl)-6,7-dihydro-5H-cyclopenta[b]pyridin-4-yl)amino)phenyl)acetamide] and `NC(=O)Cc1ccc(Nc2cc(-c3ccsc3)nc3c2CCC3)cc1` [Example 244, 2-(4-((2-(Thiophen-3-yl)-6,7-dihydro-5H-cyclopenta[b]pyridin-4-yl)amino)phenyl)acetamide] cannot be ordered by IC50: > 1000 nM for the first, > 1000 nM for the second.

`NC(=O)Cc1ccc(Cc2nc(-c3cccc(Cl)c3)nc3c2S(=O)(=O)CCC3)cc1` [Example 277, 2-(4-((2-(3-Chlorophenyl)-5,5-dioxido-7,8-dihydro-6H-thiopyrano[3,2-d]pyrimidin-4-yl)methyl)phenyl)acetamide] and `NC(=O)Cc1ccc(Nc2nc(-c3cccc(Cl)c3)nc3c2S(=O)(=O)CCC3)cc1` [Example 274, 2-(4-((2-(3-chlorophenyl)-5,5-dioxido-7,8-dihydro-6H-thiopyrano[3,2-d]pyrimidin-4-yl)amino)phenyl)acetamide] cannot be ordered by IC50: < 1000 nM for the first, < 1000 nM for the second.

`Clc1cccc(-c2nc3c(c(Nc4ccc(Cc5ncco5)cc4)n2)CCC3)c1` [Example 179, 2-(3-Chlorophenyl)-N-(4-(oxazol-2-ylmethyl)phenyl)-6,7-dihydro-5H-cyclopenta[d]pyrimidin-4-amine] and `NC(=O)Cc1ccc(Nc2nc(-c3cccc(Cl)c3)nc3c2CCC3)cc1` [Example 21, 2-[4-[[2-(3-chlorophenyl)-6,7-dihydro-5H-cyclopenta[d]pyrimidin-4-yl]amino]phenyl]acetamide] cannot be ordered by IC50: > 1000 nM for the first, > 1000 nM for the second.

`OCCc1ccc(Nc2cc(-c3ccsc3)nc3c2CCC3)cc1` [Example 243, 2 2-(4-((2-(Thiophen-3-yl)-6,7-dihydro-5H-cyclopenta[b]pyridin-4-yl)amino)phenyl)ethanol] and `COCCc1ccc(Nc2cc(-c3cccc(Cl)c3)nc3c2CCC3)cc1` [Example 86, 2-(3-Chlorophenyl)-N-(4-(2-methoxyethyl)phenyl)-6,7-dihydro-5H-cyclopenta[b]pyridin-4-amine hydrochloride] cannot be ordered by IC50: > 1000 nM for the first, > 1000 nM for the second.

`CCc1cc(Nc2ccc(C(CO)C(F)(F)F)cc2)nc(-c2cccc(Cl)c2)n1` (stereo not drawn) [Example 186, 2-(4-((2-(3-Chlorophenyl)-6-ethylpyrimidin-4-yl)amino)phenyl)-3,3,3-trifluoropropan-1-ol] and `CCc1cc(Nc2ccc(CCN(C)C)cc2)nc(-c2cccc(Cl)c2)n1` [Example 170, 2-(3-Chlorophenyl)-N-(4-(2-(dimethylamino)ethyl)phenyl)-6-ethylpyrimidin-4-amine hydrochloride] cannot be ordered by IC50: > 1000 nM for the first, > 1000 nM for the second.

`O=S1(=O)CCCc2nc(C3CCCC3)nc(Nc3ccc(CCCO)cc3)c21` [Example 287, 2-Cyclopentyl-4-((4-(3-hydroxypropyl)phenyl)amino)-7,8-dihydro-6H-thiopyrano[3,2-d]pyrimidine 5,5-dioxide] and `O=S1(=O)CCCc2nc(-c3cccc(Cl)c3)nc(Nc3ccc(Cc4nn[nH]n4)cc3)c21` [Example 316, 2-(3-Chlorophenyl)-5,5-dioxo-N-[4-(2H-tetrazol-5-ylmethyl)phenyl]-7,8-dihydro-6H-thiopyrano[3,2-d]pyrimidin-4-amine] cannot be ordered by IC50: < 1000 nM for the first, < 1000 nM for the second.

`O=C(O)Cc1ccc(Nc2nc(-c3ccc(Cl)s3)nc3c2CCC3)cc1` [Example 9, 2-[4-[[2-(5-Chloro-2-thienyl)-6,7-dihydro-5H-cyclopenta[d]pyrimidin-4-yl]amino]phenyl]acetic acid] and `NC(=O)Cc1ccc(Nc2cc(-c3ccc(Cl)s3)nc3c2CCC3)cc1` [Example 245, 2-(4-((2-(5-Chlorothiophen-2-yl)-6,7-dihydro-5H-cyclopenta[b]pyridin-4-yl)amino)phenyl)acetamide hydrochloride] cannot be ordered by IC50: > 1000 nM for the first, > 1000 nM for the second.

`NC(=O)Cc1ccc(Nc2cc(-c3cccc(Cl)c3)[n+]([O-])c3c2CCC3)cc1` [Example 103, 4-((4-(2-Amino-2-oxoethyl)phenyl)amino)-2-(3-chlorophenyl)-6,7-dihydro-5H-cyclopenta[b]pyridine 1-oxide] and `CNC(=O)Cc1ccc(Nc2cc(-c3cccc(Cl)c3)nc3c2CCC3)cc1` [Example 120, 2-(4-((2-(3-chlorophenyl)-6,7-dihydro-5H-cyclopenta[b]pyridin-4-yl)amino)phenyl)-N-methylacetamide hydrochloride] cannot be ordered by IC50: > 1000 nM for the first, > 1000 nM for the second.

`O=C(O)CCc1ccc(Nc2nc(-c3cccc(Cl)c3)nc3c2CCC3)cc1` [Example 16, 3-[4-[[2-(3-Chlorophenyl)-6,7-dihydro-5H-cyclopenta[d]pyrimidin-4-yl]amino]phenyl]propanoic acid] and `CC(O)Cc1ccc(Nc2nc(-c3cccc(Cl)c3)nc3c2CCC3)cc1` (stereo not drawn) [Example 165, 1-(4-((2-(3-Chlorophenyl)-6,7-dihydro-5H-cyclopenta[d]pyrimidin-4-yl)amino)phenyl)propan-2-ol] cannot be ordered by IC50: > 1000 nM for the first, > 1000 nM for the second.

Going from `OCCCc1cccc(-c2cc(-c3cccc(Cl)c3)nc3c2CCC3)c1` [Example 266, 3-(3-(2-(3-chlorophenyl)-6,7-dihydro-5H-cyclopenta[b]pyridin-4-yl)phenyl)propan-1-ol hydrochloride] to `CN(C)C(=O)Cc1ccc(Nc2cc(-c3cccc(Cl)c3)nc3c2CCC3)cc1` [Example 121, 2-(4-((2-(3-chlorophenyl)-6,7-dihydro-5H-cyclopenta[b]pyridin-4-yl)amino)phenyl)-N,N-dimethylacetamide hydrochloride], the IC50 falls from > 1000 nM to < 1000 nM.

Compared with `CCc1cc(Nc2ccc(Cn3cc(Cl)cn3)cc2)nc(-c2cccc(Cl)c2)n1` [Example 188, N-(4-((4-Chloro-1H-pyrazol-1-yl)methyl)phenyl)-2-(3-chlorophenyl)-6-ethylpyrimidin-4-amine], `CCc1cc(Cc2ccc(Cn3cc(Cl)cn3)cc2)nc(-c2cccc(Cl)c2)n1` [Example 190, 4-(4-((4-Chloro-1H-pyrazol-1-yl)methyl)benzyl)-2-(3-chlorophenyl)-6-ethylpyrimidine] is lower in IC50: > 1000 nM for the first, < 1000 nM for the second. The second is the more potent here.

`N#CNC(=O)Cc1ccc(Nc2nc(-c3cccc(Cl)c3)nc3c2SCCC3)cc1` [Example 314, 2-[4-[[2-(3-Chlorophenyl)-7,8-dihydro-6H-thiopyrano[3,2-d]pyrimidin-4-yl]amino]phenyl]-N-cyano-acetamide] and `NC(=O)Cc1ccc(Nc2nc(-c3cccc(Cl)c3)nc3c2SCCC3)cc1` [Example 271, 2-(4-((2-(3-chlorophenyl)-7,8-dihydro-6H-thiopyrano[3,2-d]pyrimidin-4-yl)amino)phenyl)acetamide] cannot be ordered by IC50: < 1000 nM for the first, < 1000 nM for the second.

Compared with `OCCc1ccc(Nc2cc(-c3cccc(Cl)c3)nc(C(F)(F)F)c2)cc1` [Example 146, 2-(4-((2-(3-Chlorophenyl)-6-(trifluoromethyl)pyridin-4-yl)amino)phenyl)ethanol], `NC(=O)Cc1ccc(Cc2cc(-c3cccc(Cl)c3)nc(C(F)(F)F)c2)cc1` [Example 144, 2-(4-((2-(3-Chlorophenyl)-6-(trifluoromethyl)pyridin-4-yl)methyl)phenyl)acetamide] is higher in IC50: < 1000 nM for the first, > 1000 nM for the second. The first is the more potent here.

`NC(=O)Cc1ccc(Cc2cc(C(F)(F)F)nc(C3CCCC3)n2)cc1` [Example 230, 2-(4-((2-Cyclopentyl-6-(trifluoromethyl)pyrimidin-4-yl)methyl)phenyl)acetamide] and `OCCc1ccc(Cc2cc(C(F)(F)F)nc(OC3CCCC3)n2)cc1` [Example 202, 2-(4-((2-(Cyclopentyloxy)-6-(trifluoromethyl)pyrimidin-4-yl)methyl)phenyl)ethanol] cannot be ordered by IC50: > 1000 nM for the first, > 1000 nM for the second.

`COC(=O)Cc1ccc(Nc2nc(Cl)nc(-c3ccc(Cl)s3)n2)cc1` [Example 35, methyl 2-(4-((4-chloro-6-(5-chlorothiophen-2-yl)-1,3,5-triazin-2-yl)amino)phenyl)acetate] and `CCc1c(C)nc(-c2ccc(Cl)s2)nc1Nc1ccc(CC(=O)NC)cc1` [Example 308, 2-[4-[[2-(5-Chloro-2-thienyl)-5-ethyl-6-methyl-pyrimidin-4-yl]amino]phenyl]-N-methyl-acetamide] cannot be ordered by IC50: > 1000 nM for the first, > 1000 nM for the second.

`CCc1nc(Nc2ccc(CC(N)=O)cc2)cc(-c2cccc(Cl)c2)n1` [Example 265, 2-(4-((6-(3-chlorophenyl)-2-ethylpyrimidin-4-yl)amino)phenyl)acetamide] and `CCc1nc(Nc2ccc(C#N)cc2)nc(-c2cccc(Cl)c2)n1` [Example 51, 4-(4-(3-chlorophenyl)-6-ethyl-1,3,5-triazin-2-ylamino)benzonitrile] cannot be ordered by IC50: < 1000 nM for the first, < 1000 nM for the second.

First: CCc1c(C)nc(-c2ccc(Cl)s2)nc1Nc1ccc(B(O)O)cc1 [Example 292, [4-[[2-(5-Chloro-2-thienyl)-5-ethyl-6-methyl-pyrimidin-4-yl]amino]phenyl]boronic acid]
Second: CCc1c(C)nc(-c2ccc(Cl)s2)nc1Nc1ccc(Cn2cc(Cl)cn2)cc1 [Example 304, N-[4-[(4-Chloropyrazol-1-yl)methyl]phenyl]-2-(5-chloro-2-thienyl)-5-ethyl-6-methyl-pyrimidin-4-amine]
The IC50 of the first is lower: < 1000 nM for the first, > 1000 nM for the second. The first is the more potent here.

`NC(=O)C[C@H]1CC[C@H](Nc2cc(-c3cccc(Cl)c3)nc3c2CCC3)CC1` [Example 96, Trans-2-(4-((2-(3-Chlorophenyl)-6,7-dihydro-5H-cyclopenta[b]pyridin-4-yl)amino)cyclohexyl)acetamide hydrochloride] was tested, and the IC50 was > 1000 nM.
